The results in this text go back to publication PMC11880180, “Theranostic Near-Infrared Monoamine Oxidase Inhibitor (NMI) Protein Binding Interactions with MAOA and Albumin” (Pharmaceutical Research, 2025).

For this assay, the target named is T1, MAOA (monoamine oxidase A) (Homo sapiens, UniProt P21397).
T1 construct: recombinant human MAOA (M7316-1VL)
T1 sequence (P21397 1-527): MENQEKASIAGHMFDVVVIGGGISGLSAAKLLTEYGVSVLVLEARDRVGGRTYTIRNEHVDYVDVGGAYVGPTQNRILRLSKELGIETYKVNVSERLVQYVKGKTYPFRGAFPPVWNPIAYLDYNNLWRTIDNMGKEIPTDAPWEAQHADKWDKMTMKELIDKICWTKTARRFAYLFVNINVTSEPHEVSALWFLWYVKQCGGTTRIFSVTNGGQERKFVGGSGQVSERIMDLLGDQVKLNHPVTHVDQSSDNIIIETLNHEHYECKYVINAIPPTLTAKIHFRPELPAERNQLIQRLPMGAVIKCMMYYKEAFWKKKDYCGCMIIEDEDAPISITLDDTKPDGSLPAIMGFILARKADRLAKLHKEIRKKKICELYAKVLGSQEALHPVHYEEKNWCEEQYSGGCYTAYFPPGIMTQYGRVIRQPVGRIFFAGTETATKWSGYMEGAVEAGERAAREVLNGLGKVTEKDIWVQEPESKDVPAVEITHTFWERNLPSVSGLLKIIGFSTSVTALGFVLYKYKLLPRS
Kind of assay: MAO-Glo activity assay with recombinant MAOA (IC50 […] in PEG, […] in PBS); fluorescent SDS-PAGE band of pure protein. The assay is classed as biochemical.

Usually IC50 stands for the concentration that inhibits the measured activity by half. `C#CCN(CCCNC(=O)CCCCC[N+]1=C(/C=C/C2=C(Cl)C(=C/C=C3\N(CCCCCC(=O)[O-])c4ccccc4C3(C)C)/CCC2)C(C)(C)c2ccccc21)CCCOc1ccc(Cl)cc1Cl` [NMI]: the IC50 came out at 1.6 µM.
